Measured values published in patent US6716833B2, “Acetylenic α-amino acid-based sulfonamide hydroxamic acid tace inhibitors” (priority 1999, dated 2004).
Counter-ions that a name gives are not always drawn. Like-named read-outs stand apart in the source and are kept apart here.

Experiments:
[1] = target: MMP-13 (Homo sapiens, UniProt P45452); test: MMP-13 inhibition (thiopeptide or fluorescent peptide substrate); type: biochemical; conditions: read-out: MMP-13 IC50
Description: The enzyme activity is measured by the rate of the color increase. The thiopeptide substrate is made up fresh as a 20 mM stock in 100% DMSO and the DTNB is dissolved in 100% DMSO as a 100 mM stock and stored in the dark at room temperature. Both the substrate and DTNB are diluted together to 1 mM with substrate buffer (50 mM HEPES pH 7.5, 5 mM CaCl2) before use. The stock of enzyme is diluted with buffer (50 mM HEPES, pH 7.5, 5 mM CaCl2, 0.02% Brij) to the desired final concentration.
Alternatively, a fluorescent peptide substrate is used. In this test procedure, the peptide substrate contains a fluorescent group and a quenching group. Upon cleavage of the substrate by an MMP, the fluorescence that is generated is quantitated on the fluorescence plate reader. The assay is run in HCBC assay buffer (50 mM HEPES, pH 7.0, 5 mM Ca^+2, 0.02% Brij, 0.5% Cysteine), with human recombinant MMP-1, MMP-9, or MMP-13. […] For the assay, substrate and enzymes are diluted in HCBC buffer to the desired concentrations. Compounds are added to the 96 well plate containing enzyme and the reaction is started by the addition of substrate.
For either the thiopeptide or fluorescent peptide test procedures, the slope of the line is calculated and represents the reaction rate. The linearity of the reaction rate is confirmed (r^2>0.85). The mean (x±sem) of the control rate is calculated and compared for statistical significance (p<0.05) with drug-treated rates using Dunnett's multiple comparison test.

[2] = target: TNF-α converting enzyme (TACE) (Homo sapiens, UniProt P78536); test: TACE inhibition (fluorescent peptidyl substrate); type: biochemical; conditions: read-out: TACE IC50
[3] = tested on: THP-1 cells; test: THP-1 soluble protein assay, soluble TNF-α (ELISA); type: cell-based, human; conditions: for inhibition at 3 µM: Homo sapiens
Description: Each vial of cells are cultured for about two weeks prior to being used for an assay and then are used for only 4 to 6 weeks to screen compounds.
Cell exposure to DMSO was limited to 0.1% final concentration. […] Plates are placed into an incubator set at 5% CO2 and at 37° C. After 4 hours of incubation, 300 ml/well of tissue culture supernatant (TCS) is removed for use in an TNF-α ELISA.
Percent change in each soluble protein evaluated from the “vehicle positive control” was calculated for each compound concentration with the following formula:
% Change=pg/ml (compound)−pg/ml (veh pos control)/(veh pos control)−pg/ml (veh neg control)×100
For the soluble protein (TNF-α, p75/80, p55/60, IL-8) studies under stimulated conditions, the mean pg/ml of duplicate wells were determined and the results expressed as percent change from “vehicle positive control”.

[4] = target: T1, MMP-1 (Homo sapiens, UniProt P03956); test: MMP-1 inhibition (thiopeptide or fluorescent peptide substrate); type: biochemical; conditions: read-out: MMP-1 IC50
T1 sequence (P03956 100-469): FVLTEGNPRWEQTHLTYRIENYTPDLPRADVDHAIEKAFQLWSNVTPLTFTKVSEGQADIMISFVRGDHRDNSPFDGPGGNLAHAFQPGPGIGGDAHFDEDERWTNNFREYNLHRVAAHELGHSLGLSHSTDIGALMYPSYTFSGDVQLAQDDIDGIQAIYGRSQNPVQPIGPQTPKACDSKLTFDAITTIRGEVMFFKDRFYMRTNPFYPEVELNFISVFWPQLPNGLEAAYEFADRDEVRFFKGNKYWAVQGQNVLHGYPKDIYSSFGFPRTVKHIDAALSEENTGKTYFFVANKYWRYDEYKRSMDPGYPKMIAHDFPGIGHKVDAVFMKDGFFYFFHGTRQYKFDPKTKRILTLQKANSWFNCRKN

[5] = target: MMP-9 (Homo sapiens, UniProt P14780); test: MMP-9 inhibition (thiopeptide or fluorescent peptide substrate); type: biochemical; conditions: read-out: MMP-9 IC50
[6] = THP-1, 3 μM, THP-1 cells, read-out: THP % Inhibition @ 3 μM

TNF-α converting enzyme (TACE), sequence (P78536 215-824, species assumed): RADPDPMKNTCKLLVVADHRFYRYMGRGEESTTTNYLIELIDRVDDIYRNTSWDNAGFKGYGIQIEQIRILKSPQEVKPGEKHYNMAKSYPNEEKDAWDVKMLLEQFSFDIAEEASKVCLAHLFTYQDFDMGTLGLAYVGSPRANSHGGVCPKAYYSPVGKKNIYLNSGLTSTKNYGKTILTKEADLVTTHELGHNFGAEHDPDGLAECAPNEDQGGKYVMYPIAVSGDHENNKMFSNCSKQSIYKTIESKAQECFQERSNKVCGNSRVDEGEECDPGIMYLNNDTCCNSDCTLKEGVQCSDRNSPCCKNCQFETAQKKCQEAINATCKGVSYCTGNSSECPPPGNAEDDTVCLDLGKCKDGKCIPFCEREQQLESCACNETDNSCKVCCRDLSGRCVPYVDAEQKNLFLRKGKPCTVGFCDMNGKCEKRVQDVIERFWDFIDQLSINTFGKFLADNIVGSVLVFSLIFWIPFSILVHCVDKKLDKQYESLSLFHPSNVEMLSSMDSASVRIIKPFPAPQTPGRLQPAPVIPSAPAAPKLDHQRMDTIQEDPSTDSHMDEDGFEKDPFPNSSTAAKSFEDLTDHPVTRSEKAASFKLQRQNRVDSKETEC
MMP-9, sequence (P14780 94-707): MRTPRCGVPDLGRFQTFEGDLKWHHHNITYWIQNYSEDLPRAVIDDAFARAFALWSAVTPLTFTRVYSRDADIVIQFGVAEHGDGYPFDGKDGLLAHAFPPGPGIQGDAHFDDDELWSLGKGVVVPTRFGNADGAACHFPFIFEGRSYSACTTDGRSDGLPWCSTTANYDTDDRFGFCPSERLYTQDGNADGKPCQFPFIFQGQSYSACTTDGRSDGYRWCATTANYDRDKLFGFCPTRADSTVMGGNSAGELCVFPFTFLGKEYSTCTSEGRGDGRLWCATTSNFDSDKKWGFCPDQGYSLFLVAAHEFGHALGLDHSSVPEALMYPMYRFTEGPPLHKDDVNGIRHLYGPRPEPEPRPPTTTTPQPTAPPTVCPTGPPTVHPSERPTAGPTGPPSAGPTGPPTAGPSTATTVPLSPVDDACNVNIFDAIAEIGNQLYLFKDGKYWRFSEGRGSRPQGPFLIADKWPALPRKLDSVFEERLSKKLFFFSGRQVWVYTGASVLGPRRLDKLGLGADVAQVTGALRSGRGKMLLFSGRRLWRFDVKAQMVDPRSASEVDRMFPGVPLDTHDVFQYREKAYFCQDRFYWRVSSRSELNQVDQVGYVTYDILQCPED

| Compound | IC50 [1] | IC50 [2] | IC50 [4] | inhibition at 3 µM [3, 6] | also measured |
| --- | --- | --- | --- | --- | --- |
| 3-(Benzylthio)-2-[[[4-(2-butynyloxy)phenyl]sulfonyl]methylamino]-N-hydroxypropanamide [Example 156] | 4.5 nM | 4.8 nM | – | – | THP % Inhibition @ 3 μM ([3]; THP-1 cells): 75% |
| CC#CCOc1ccc(S(=O)(=O)N(CC(=O)NO)Cc2cccnc2)cc1 [Example 23, 2-[(4-but-2-ynyloxy-Benzenesulfonyl)-pyridin-3-ylmethyl-amino]-N-hydroxyacetamide Hydrochloride] | – | – | – | – | inhibition at 3 µM ([3]; THP-1, read-out: THP % Inhibition @ 3 μM): 63% |
| CC#CCOc1ccc(S(=O)(=O)N(C)C(C(=O)NO)C(C)(C)SCC)cc1 (centres unmarked) [Example 150, 2-[(4-but-2-ynyloxy-Benenesulfonyl)-methyl-amino]-N-hydroxy-3-methyl-3-ethylsulfanyl-butyramide] | 9.3 nM | 51 nM | 25 nM | – | THP % Inhibition @ 3 μM ([3]; THP-1 cells): 86% |
| CC#CCOc1ccc(S(=O)(=O)N[C@@H](C(=O)NO)C(C)(C)SCCCO)cc1 [Example 171, (2S)-2-({[4-(2-Butynyloxy)phenyl]sulfonyl}amino)-N-hydroxy-3-[(3-hydroxypropyl)sulfanyl]-3-methylbutanamide] | 36 nM | 25 nM | 2140 nM | 67% | – |
| CC#CCOc1ccc(S(=O)(=O)N[C@H](CSCCCO)C(=O)NO)cc1 [Example 172, (2S)-2-({[4-(2-Butynyloxy)phenyl]sulfonyl}amino)-N-hydroxy-3-[(3-hydroxypropyl)sulfanyl]-3-propanamide] | 169 nM | 11 nM | > 1000 nM | 70% | – |
| CC#CCOc1ccc(S(=O)(=O)NC(C(=O)NO)c2ccc(OCCN(C)C(=O)OC(C)(C)C)cc2)cc1 (centres unmarked) [Example 203, tert-Butyl 4-(2-{4-[1-({[4-(2-Butynyloxy)phenyl]sulfonyl}amino)-2-(hydroxyamino)-2-oxoethyl)phenoxy]ethyl)-(methyl)carbamate] | 126 nM | 49 nM | > 10000 nM | – | IC50 [5]: 859 nM; melting point: 90 to 92 °C |
| CC#CCOc1ccc(S(=O)(=O)N2CCSC3(CCCCC3)C2C(=O)NO)cc1 (centres unmarked) [Example 237] | – | – | – | – | IC50 ([1]; Table 9): 12 nM; IC50 ([2]; Table 9): 212 nM; THP % Inhibition @ 3 μM ([3]; Table 9): 90%; IC50 ([4]; Table 9): 62 nM |
| CC#CCOc1ccc(S(=O)(=O)N2CCSC(CC)(CC)C2C(=O)NO)cc1 (centres unmarked) [Example 238] | – | – | – | – | IC50 ([1]; Table 9): 6.8 nM; IC50 ([2]; Table 9): 228 nM; THP % Inhibition @ 3 μM ([3]; Table 9): 73%; IC50 ([4]; Table 9): 38 nM |
| CC1(C)SCCN(S(=O)(=O)c2ccc(OCC#CCO)cc2)[C@H]1C(=O)NO [Example 260, (3S)-N-Hydroxy-4-({4-[(4-hydroxy-2-butynyl)oxy]phenyl}sulfonyl)-2,2-dimethyl-3-thiomorpholine Carboxamide] | – | – | – | – | IC50 ([1]; Table 10): 8.1 nM; IC50 ([2]; Table 10): 20 nM; inhibition at 3 µM ([3]; THP-1, 3 μM, Table 10, read-out: THP % Inhibition @ 3 μM): 95%; IC50 ([4]; Table 10): 33 nM |
| CC#CCOc1ccc(S(=O)(=O)N2C[C@@H](CNC(=O)OC(C)(C)C)SC(C)(C)[C@@H]2C(=O)NO)cc1 [Example 273, tert-Butyl{(2R,5S)-4-{[4-(2-butynyloxy)phenyl]sulfonyl}-5-[(hydroxyamino)carbonyl]-6,6-dimethylthiomorpholinyl}methylcarbamate] | – | – | – | – | IC50 ([2]; Table 11): 87 nM; inhibition at 3 µM ([3]; THP-1, 3 μM, Table 11, read-out: THP % Inhibition @ 3 μM): 90%; IC50 ([5]; Table 11): 61 nM |
| CC#CCOc1ccc(S(=O)(=O)NC2(C(=O)NO)CCN(C(=O)OC(C)(C)C)CC2)cc1 [Example 287, tert-Butyl 4-({[4-(2-Butynyloxy)phenyl]sulfonyl}amino)-4-[(hydroxyamino)carbonyl]-1-piperidinecarboxylate] | 530 nM | 37 nM | > 10000 nM | 60% | – |
| CC#CCOc1ccc(S(=O)(=O)NC2(C(=O)NO)CCNCC2)cc1 [Example 288, 4-({[4-(2-Butynyloxy)phenyl]sulfonyl}amino)-N-hydroxy-4-piperidinecarboxamide] | > 10000 nM | 50 nM | > 10000 nM | 25% | – |
